Experimental data reported in PubChem BioAssay (NCI).
Where “and” joins values, the source holds several entries; their conditions need not be identical. Identical values can stand only once.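 The compound was tested at five concentrations on cells cultured in 96-well plates, with a 48-hour exposure period. The concentration for 50% growth inhibition is given as GI50. TGI marks complete inhibition of growth.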

The compounds below were run on SW-620 colon (assay: NCI tumour cell line growth inhibition, 48 h).

Going from `Cc1csc(-c2nnc(Nc3ccc(Oc4ncccc4-c4ccnc(N)n4)cc3)c3ccccc23)c1` to `O=C(Oc1ccc(Cl)cc1)c1ccccc1Nc1ccnc(C(F)(F)F)c1`, the GI50 rises from 0.651 µM to 6.66 µM (10-fold).

Going from `CCCCCCCCCCn1cc[n+](C)c1` to `CCCCCCCCCCCCC(O)c1ccc(C#CCCCCCCCCCO)o1` (stereo unspecified), the GI50 rises from 3.3 µM to 22.7 µM (6.9-fold).

First: CC1SC(c2ccc(F)cc2)N(NC(=O)C(O)c2ccccc2)C1=O (stereo unspecified)
Second: Nc1ccccc1SC(CC(=O)c1ccccc1)c1cccc([N+](=O)[O-])c1 (stereo unspecified)
The GI50 of the first is higher: greater than 100 µM for the first, 3.03 µM for the second.

Compared with `Nc1n[nH]c2cccc(C#Cc3cccc(C(=O)Nc4ccc(CN5CCOCC5)c(C(F)(F)F)c4)c3)c12`, `Nc1c(C(=O)Nc2cccc(C(F)(F)F)c2)sc2nc3c(cc12)CCCCC3` is 2.2-fold higher in GI50: 2.89 µM for the first, 6.42 µM for the second.

First: COc1ccc(-c2cn[nH]c2-c2cc(OC)c(OC)c(OC)c2)cc1
Second: COc1ccc(CCN=C2NC(=O)/C(=C/c3ccc4ncccc4c3)S2)cc1
The GI50 of the first is lower: 0.0316 µM for the first, greater than 25 µM for the second.

First: COc1ccc2nc(NC(=O)CSc3nnc4n3S(=O)(=O)c3ccccc3N4c3ccccc3)sc2c1
Second: O=c1ccc2ccccc2cc1[O-].O=c1ccc2ccccc2cc1[O-].[O]=[U+2]=[O]
The GI50 of the first is higher: greater than 100 µM for the first, 7.76 µM for the second.

Compound `Nc1cc(NN=C(c2ccc(O)cc2)c2ccc(O)cc2)c([N+](=O)[O-])cc1[N+](=O)[O-]` has a GI50 of 1.58 µM.

Compared with `Cc1csc(-c2nnc(Nc3ccc(Oc4ncccc4-c4ccnc(N)n4)cc3)c3ccccc23)c1`, `O=C(Oc1ccc(Cl)cc1)c1ccccc1Nc1ccnc(C(F)(F)F)c1` is lower in TGI: greater than 100 µM for the first, 63.3 µM for the second.

First: Cc1ccc(/C=C/C(=O)CCN(C)C)cc1
Second: O=C(/C=C/c1ccc([N+](=O)[O-])cc1)c1ccc(NCc2nc3ccccc3[nH]2)cc1
The TGI of the first is 4.9-fold higher: 30.2 µM for the first, 6.19 µM for the second.

Compared with `COc1cc(C2CC(C)(O)Oc3cc4c(cc32)OCO4)cc(OC)c1OC` (stereo unspecified), `COc1ccc(-c2cn[nH]c2-c2cc(OC)c(OC)c(OC)c2)cc1` is lower in TGI: greater than 100 µM for the first, 26.7 µM for the second.

`CCCCCCCCCCn1cc[n+](C)c1` and `CCCCCCCCCCCCC(O)c1ccc(C#CCCCCCCCCCO)o1` (stereo unspecified) are within 1.5-fold of each other in TGI: 33 µM for the first, 41.4 µM for the second.

Compared with `CC1SC(c2ccc(F)cc2)N(NC(=O)C(O)c2ccccc2)C1=O` (stereo unspecified), `Nc1ccccc1SC(CC(=O)c1ccccc1)c1cccc([N+](=O)[O-])c1` (stereo unspecified) is lower in TGI: greater than 100 µM for the first, 12.2 µM for the second.

`Cc1cc2c(C)[nH]nc2c(C(=O)O)c1C` and `CC1(C)OC1COc1c2occc2cc2ccc(=O)oc12` (stereo unspecified) cannot be ordered by TGI: greater than 100 µM for the first, greater than 100 µM for the second.

Compared with `Nc1n[nH]c2cccc(C#Cc3cccc(C(=O)Nc4ccc(CN5CCOCC5)c(C(F)(F)F)c4)c3)c12`, `Nc1c(C(=O)Nc2cccc(C(F)(F)F)c2)sc2nc3c(cc12)CCCCC3` is higher in TGI: 12.7 µM for the first, greater than 100 µM for the second.

First: COc1ccc2nc(NC(=O)CSc3nnc4n3S(=O)(=O)c3ccccc3N4c3ccccc3)sc2c1
Second: O=c1ccc2ccccc2cc1[O-].O=c1ccc2ccccc2cc1[O-].[O]=[U+2]=[O]
The TGI of the first is higher: greater than 100 µM for the first, 39.7 µM for the second.

`O=C1NC(=NC(CO)Cc2ccccc2)S/C1=C\c1ccc2ncccc2c1` (stereo unspecified) and `COc1ccc(CCN=C2NC(=O)/C(=C/c3ccc4ncccc4c3)S2)cc1` cannot be ordered by TGI: greater than 25 µM for the first, greater than 25 µM for the second.

`COC(=O)C(CCCN1C(=O)c2ccccc2C1=O)C(=O)OC` and `CC(=O)O/N=C(/C)c1ccccc1O` cannot be ordered by TGI: greater than 100 µM for the first, greater than 100 µM for the second.

`COc1nc(NC2OC(COC(C)=O)C(OC(C)=O)C(OC(C)=O)C2OC(C)=O)c2c(OC(C)=O)cc(=O)oc2n1` (stereo unspecified) and `CCCCN(CCCC)C(=O)C(=O)C(C(=O)c1ccc(OC)cc1)c1ccc(OC)cc1` (stereo unspecified) cannot be ordered by TGI: greater than 100 µM for the first, greater than 100 µM for the second.

First: CC(C)(C)c1cc2c(O)c3cccc4c(=O)c5cccc6c5-c(c34)c2c(c1)c6=O
Second: CN(C)CCn1c2c3ccccc3ccc2c2oc(=O)c3ccccc3c21
The TGI of the first is higher: greater than 100 µM for the first, 32.4 µM for the second.

Compared with `Nc1cc(NN=C(c2ccc(O)cc2)c2ccc(O)cc2)c([N+](=O)[O-])cc1[N+](=O)[O-]`, `COc1ccc(C)cc1-c1cc(Sc2ccccc2)c(-c2cc(C)ccc2OC)o1` is higher in TGI: 2.93 µM for the first, greater than 31.6 µM for the second.

Compared with `O=C1C=CC(=O)c2nc3c(cc21)CCC3`, `C=C(C)CCOC(c1ccccc1)(c1ccccc1)c1ccccc1` is higher in TGI: 31.1 µM for the first, greater than 100 µM for the second.

For `O=C1NC(=NC(CO)Cc2ccccc2)S/C1=C\c1ccc2ncccc2c1` (stereo unspecified), the GI50 was 9.04 µM and 0.927 µM.

What follows are compounds tested on SK-OV-3 ovarian (assay: NCI tumour cell line growth inhibition, 48 h).

`COC(=O)CC(c1ccccc1)C1(c2ccccc2)SCCS1` (stereo unspecified) and `Cc1ccc(/C=C/C(=O)CCN(C)C)cc1` cannot be ordered by TGI: greater than 290 µM for the first, greater than 100 µM for the second.

`CCOC(=O)C1=C(C(=O)OCC)C2c3ccccc3C=CN2C(C(=O)OCC)=C(SC)S1` (stereo unspecified) and `S=c1sc2c(n1-c1ccccc1)NC=NC2S` (stereo unspecified) cannot be ordered by TGI: greater than 100 µM for the first, greater than 100 µM for the second.

Going from `CCCCCCCCCCCCCCCC[N+](C)(C)Cc1ccccc1` to `CCCCCCCCCCn1cc[n+](C)c1`, the TGI rises from 3.7 µM to 20.9 µM (5.6-fold).

First: CCN(Cc1ccc(F)cc1)c1cc(Cl)c(CO)c(Cl)c1
Second: Cc1csc(-c2nnc(Nc3ccc(Oc4ncccc4-c4ccnc(N)n4)cc3)c3ccccc23)c1
The TGI of the first is lower: 28.7 µM for the first, greater than 100 µM for the second.

`COc1cc(-c2ccc3cc(OC)c(OC)c(OC)c3c2)cc(OC)c1OC` gave a TGI greater than 100 µM.

First: CCCCCCCCCCCCCCCC[N+](C)(C)Cc1ccccc1
Second: CCCCCCCCCCn1cc[n+](C)c1
The GI50 of the first is 1.6-fold lower: 1.68 µM for the first, 2.62 µM for the second.

First: CCN(Cc1ccc(F)cc1)c1cc(Cl)c(CO)c(Cl)c1
Second: Cc1csc(-c2nnc(Nc3ccc(Oc4ncccc4-c4ccnc(N)n4)cc3)c3ccccc23)c1
The GI50 of the first is lower: 15.2 µM for the first, greater than 100 µM for the second.

Work on `COc1cc(-c2ccc3cc(OC)c(OC)c(OC)c3c2)cc(OC)c1OC` yielded a GI50 of 34.4 µM.
